Legend:
CA I [1] = molecular target: T1, CA I (Homo sapiens, UniProt P00915); assay: stopped-flow CO2 hydrase assay; assay type: biochemical; details: read-out: KI (μM)^a^,^b / CA I
T1 construct: gene CA1; recombinant
Excerpt: stopped-flow CO2 hydrase assay on CA I

CA II [2] = molecular target: T2, CA II (Homo sapiens, UniProt P00918); assay: stopped-flow CO2 hydrase assay; assay type: biochemical; details: read-out: KI (μM)^a^,^b / CA I
T2 construct: gene CA2; recombinant
Excerpt: stopped-flow CO2 hydrase assay on CA II

CA II [3] = molecular target: T2, CA II; assay: biochemical; parameters: stopped-flow CO2 hydration assay of recombinant human CA isoforms, inhibition constant; details: 6 h incubation
Protocol: (§1) The CA-catalysed CO2 hydration activity was assayed by using an applied photophysics stopped-flow apparatus as reported in previous papers from our group. All CA isoforms were recombinant proteins, obtained as reported earlier. The newly synthesised compounds 7–10 were investigated for their CA inhibition activity against four pharmacologically relevant human CA isoforms—the ubiquitous cytosolic CA I and II as well as the cancer-associated CA IX and XII. In this study, CA I and CA II are considered off-target isoforms, that were tested in order to explore the selectivity of inhibitors towards the CA IX and CA XII isoforms. The clinically utilised acetazolamide (AAZ) was used as a reference drug. The following structure-activity relationship (SAR) can be deduced from the inhibition data reported in Table 1: It is worthwhile to underline here that a 6-h incubation of the enzyme and each compound 7–10 solutions is essential. When the incubation period of 15 min was used for assaying the inhibition, as generally done for the other types of CA inhibitors, only a weak inhibition was observed (data not shown). Furthermore, it appears to be the case with coumarins and related bioisosteres. […]

CA I [4] = molecular target: T1, CA I; assay: biochemical; parameters: stopped-flow CO2 hydration assay of recombinant human CA isoforms, inhibition constant; details: 6 h incubation
Protocol: as §1

T1 sequence (P00915 2-261): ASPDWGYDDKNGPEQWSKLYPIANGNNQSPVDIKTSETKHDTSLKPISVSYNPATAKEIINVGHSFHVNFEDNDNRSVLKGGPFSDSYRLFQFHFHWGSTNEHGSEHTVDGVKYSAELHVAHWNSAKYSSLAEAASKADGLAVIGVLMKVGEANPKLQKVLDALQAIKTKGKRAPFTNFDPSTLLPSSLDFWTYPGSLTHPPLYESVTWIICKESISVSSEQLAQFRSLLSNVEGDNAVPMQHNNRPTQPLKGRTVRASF

“2-Hydroxy-7-(o-tolyl)-3H-benzo[f][1,2]oxaphosphepine 2-oxide [8i]” was tested, and the Ki (CA I [1]; […] h incubation) was > 100 µM and the Ki (CA II [2]; […] h incubation) was > 100 µM.
In the case of “7–(3-Fluorophenyl)-2-hydroxy-3H-benzo[f][1,2]oxaphosphepine 2-oxide [8h]”, the Ki (CA I [1]; 6 h incubation) was > 100 µM and the Ki (CA II [2]; 6 h incubation) was > 100 µM.
With `O=P1(O)CC=Cc2ccc(Br)cc2O1` [7b, 8-Bromo-2-hydroxy-3H-benzo[f][1,2]oxaphosphepine 2-oxide] the Ki (CA I [1]) was > 100 µM and the Ki (CA II [2]) was > 100 µM.
`O=P1(O)CC=Cc2cc(-c3ccccc3)ccc2O1` [8a, 2-Hydroxy-7-phenyl-3H-benzo[f][1,2]oxaphosphepine 2-oxide] was tested, and the Ki (CA I [1]) was > 100 µM and the Ki (CA II [2]) was > 100 µM.
With `COc1ccc(-c2ccc3c(c2)C=CCP(=O)(O)O3)cc1` [8b, 2-Hydroxy-7–(4-methoxyphenyl)-3H-benzo[f][1,2]oxaphosphepine 2-oxide] the Ki (CA I [1]) was > 100 µM and the Ki (CA II [2]) was > 100 µM.
`CCOC(=O)c1ccc(-c2ccc3c(c2)C=CCP(=O)(O)O3)cc1` [8c, Ethyl 4–(2-hydroxy-2-oxido-3H-benzo[f][1,2]oxaphosphepin-7-yl)benzoate] was tested, and the Ki (CA I [1]) was > 100 µM and the Ki (CA II [2]) was > 100 µM.
For `O=P1(O)CC=Cc2cc(-c3ccc(F)cc3)ccc2O1` [8d, 7–(4-Fluorophenyl)-2-hydroxy-3H-benzo[f][1,2]oxaphosphepine 2-oxide], the Ki (CA I [1]) was > 100 µM and the Ki (CA II [2]) was > 100 µM.
For `O=P1(O)CC=Cc2cc(-c3ccc(Cl)cc3)ccc2O1` [8e, 7–(4-Chlorophenyl)-2-hydroxy-3H-benzo[f][1,2]oxaphosphepine 2-oxide], the Ki (CA I [1]) was > 100 µM and the Ki (CA II [2]) was > 100 µM.
For `O=P1(O)CC=Cc2cc(-c3ccc(C(F)(F)F)cc3)ccc2O1` [8f, 2-Hydroxy-7–(4-(trifluoromethyl)phenyl)-3H-benzo[f][1,2]oxaphosphepine 2-oxide], the Ki (CA I [1]) was > 100 µM and the Ki (CA II [2]) was > 100 µM.
For `O=P1(O)CC=Cc2cc(-c3cc(Cl)cc(Cl)c3)ccc2O1` [8g, 7–(3,5-Dichlorophenyl)-2-hydroxy-3H-benzo[f][1,2]oxaphosphepine 2-oxide], the Ki (CA I [1]) was > 100 µM and the Ki (CA II [2]) was > 100 µM.
`O=P1(O)CC=Cc2cc(-c3cccc(F)c3)ccc2O1` [8h, 7-(3-Fluorophenyl)-2-hydroxy-3H-benzo[f][1,2]oxaphosphepine 2-oxide] was tested, and the Ki (CA II [3]) was > 100 µM and the Ki (CA I [4]) was > 100 µM.
For `COC(=O)c1cccc(-c2ccc3c(c2)C=CCP(=O)(O)O3)c1` [8j, Methyl 3–(2-hydroxy-2-oxido-3H-benzo[f][1,2]oxaphosphepin-7-yl)benzoate], the Ki (CA I [1]) was > 100 µM and the Ki (CA II [2]) was > 100 µM.
With `O=[N+]([O-])c1cccc(-c2ccc3c(c2)C=CCP(=O)(O)O3)c1` [8k, 2-Hydroxy-7–(3-nitrophenyl)-3H-benzo[f][1,2]oxaphosphepine 2-oxide] the Ki (CA I [1]) was > 100 µM and the Ki (CA II [2]) was > 100 µM.
For `CC(C)(C)c1ccc(-c2ccc3c(c2)C=CCP(=O)(O)O3)cc1` [8l, 7–(4-(tert-Butyl)phenyl)-2-hydroxy-3H-benzo[f][1,2]oxaphosphepine 2-oxide], the Ki (CA I [1]) was > 100 µM and the Ki (CA II [2]) was > 100 µM.
`O=P1(O)CC=Cc2ccc(-c3ccccc3)cc2O1` [9a, 2-Hydroxy-8-phenyl-3H-benzo[f][1,2]oxaphosphepine 2-oxide] was tested, and the Ki (CA I [1]) was > 100 µM and the Ki (CA II [2]) was > 100 µM.
`COc1ccc(-c2ccc3c(c2)OP(=O)(O)CC=C3)cc1` [9b, 2-Hydroxy-8–(4-methoxyphenyl)-3H-benzo[f][1,2]oxaphosphepine 2-oxide] was tested, and the Ki (CA I [1]) was > 100 µM and the Ki (CA II [2]) was > 100 µM.
For `CCOC(=O)c1ccc(-c2ccc3c(c2)OP(=O)(O)CC=C3)cc1` [9c, Ethyl 4–(2-hydroxy-2-oxido-3H-benzo[f][1,2]oxaphosphepin-8-yl)benzoate], the Ki (CA I [1]) was > 100 µM and the Ki (CA II [2]) was > 100 µM.
With `O=P1(O)CC=Cc2ccc(-c3ccc(Cl)cc3)cc2O1` [9d, 8–(4-Chlorophenyl)-2-hydroxy-3H-benzo[f][1,2]oxaphosphepine 2-oxide] the Ki (CA I [1]) was > 100 µM and the Ki (CA II [2]) was > 100 µM.
In the case of `O=P1(O)CC=Cc2ccc(-c3cc(Cl)cc(Cl)c3)cc2O1` [9e, 8–(3,5-Dichlorophenyl)-2-hydroxy-3H-benzo[f][1,2]oxaphosphepine 2-oxide], the Ki (CA I [1]) was > 100 µM and the Ki (CA II [2]) was > 100 µM.
With `O=[N+]([O-])c1ccccc1-c1ccc2c(c1)OP(=O)(O)CC=C2` [9f, 2-Hydroxy-8–(2-nitrophenyl)-3H-benzo[f][1,2]oxaphosphepine 2-oxide] the Ki (CA I [1]) was > 100 µM and the Ki (CA II [2]) was > 100 µM.
For `O=P1(O)CC=Cc2cccc(-c3ccccc3)c2O1` [10a, 2-Hydroxy-9-phenyl-3H-benzo[f][1,2]oxaphosphepine 2-oxide], the Ki (CA I [1]) was > 100 µM and the Ki (CA II [2]) was > 100 µM.
In the case of `COc1ccc(-c2cccc3c2OP(=O)(O)CC=C3)cc1` [10b, 2-Hydroxy-9–(4-methoxyphenyl)-3H-benzo[f][1,2]oxaphosphepine 2-oxide], the Ki (CA I [1]) was > 100 µM and the Ki (CA II [2]) was > 100 µM.
With `CCOC(=O)c1ccc(-c2cccc3c2OP(=O)(O)CC=C3)cc1` [10c, Ethyl 4–(2-hydroxy-2-oxido-3H-benzo[f][1,2]oxaphosphepin-9-yl)benzoate] the Ki (CA I [1]) was > 100 µM and the Ki (CA II [2]) was > 100 µM.
In the case of `O=P1(O)CC=Cc2cccc(-c3ccc(Cl)cc3)c2O1` [10d, 9–(4-Chlorophenyl)-2-hydroxy-3H-benzo[f][1,2]oxaphosphepine 2-oxide], the Ki (CA I [1]) was > 100 µM and the Ki (CA II [2]) was > 100 µM.
With `O=P1(O)CC=Cc2cccc(-c3cc(Cl)cc(Cl)c3)c2O1` [10e, 9–(3,5-Dichlorophenyl)-2-hydroxy-3H-benzo[f][1,2]oxaphosphepine 2-oxide] the Ki (CA I [1]) was > 100 µM and the Ki (CA II [2]) was > 100 µM.
In the case of `O=[N+]([O-])c1ccccc1-c1cccc2c1OP(=O)(O)CC=C2` [10f, 2-Hydroxy-9–(2-nitrophenyl)-3H-benzo[f][1,2]oxaphosphepine 2-oxide], the Ki (CA I [1]) was > 100 µM and the Ki (CA II [2]) was > 100 µM.

Reference: publication PMC10478600, “Aryl derivatives of 3H-1,2-benzoxaphosphepine 2-oxides as inhibitors of cancer-related carbonic anhydrase isoforms IX and XII” (Journal of Enzyme Inhibition and Medicinal Chemistry, 2023)
